In patent US20140243292A1, “SUBSITUTED 2-(CHROMAN-6-YLOXYL)-THIAZOLES AND THEIR USE AS PHARMACEUTICALS” (Sanofi, priority 2011, published 2014):
pIC50: −log10 of the molar value. Counter-ions that a name gives are not always drawn.

Biological target: T1, human NCX1 (Homo sapiens, UniProt P32418)
T1 construct: expressed in transfected cells
Experiment: NCX1 inhibition, reverse mode (Ca2+ influx into cells), FLIPR Fluo-4 assay
Format: cell-based
Settings: NCX1 reverse mode; at 30 μM; read-out: Inhibition in % at 30 μM (NCX1rv; IC50 value not determined)
Source text: The sodium/calcium exchanger NCX1 can transport calcium ions and sodium ions through the cell membrane. The transport is an exchange of Ca^2+ and Na^+ in two directions depending on membrane potential and ion gradients. At the first direction, named “forward mode” or “calcium export mode”, Ca^2+ is transported out of the cell and Na^+ is transported into the cell. At the other direction, named “reverse mode” or “calcium import mode”, the transport directions are vice versa. The effect of the compounds of the invention on NCX1 was determined in CHO cells stably expressing human NCX1 (gene symbol SLC8A1; cf. WO 2009/115238). The assay is based on the monitoring of intracellular Ca^2+ concentrations using a calcium-sensitive fluorescence dye which is detected by means of a FLIPR device (Fluorimetric Imaging Plate Reader, Molecular Devices).
The assay is based on the monitoring of intracellular Ca^2+ concentrations using the calcium-sensitive dye Fluo-4. CHO cells expressing NCX1 were loaded with the dye by means of the acetoxymethyl ester Fluo-4 AM (Invitrogen, F14202), which is cleaved intracellularly by esterase activity to yield the charged species of free Fluo-4. After an preincubation period with the test compound, Gramicidine (Sigma, G5002) was added. Gramicidine is an ionophor for Na^+ ions mediating an increase of intracellular Na^+ ions. Consequently, intracellular Na^+ ions are exchanged against extracellular Ca^2+ ions (Ca^2+ influx, reverse mode). The intracellular elevation of Ca^2+ ions was detected by measuring the fluorescence of Fluo-4 at a wavelength of 520 nm by a FLIPR device.
Briefly, for the reverse mode transport assay 18000 cells per well were seeded into a 96 well microplate (Corning COSTAR 3904) and incubated overnight in culture medium (1× Nut Mix F12 (Ham) (Gibco, 21765-029); 10% (v/v) fetal calf serum (PAA Gold, A15-649); 450 μg/ml Geneticin (Gibco, 10131-027)). A total volume of 100 μl medium per well was used. For the preparation of the FLIPR assay, the culture medium was removed from the plates and 100 μl of dye solution (2 μM Fluo-4 AM; 0.02% (v/v) Pluronic F-127 (20%, Invitrogen, P3000MP); 0.1% (v/v) bovine albumin solution (30% (v/v), Sigma, A9205) in assay buffer (133.8 mM NaCl (Sigma, S5886); 4.7 mM KCl (Sigma, P3911); 1.25 mM MgCl2 (Merck, 1.05833.0250); 3.5 mM CaCl2 (Merck, 1.02083.0250); 5 mM glucose (Sigma, G7021); 10 mM Hepes (Sigma, H4034); 0.01% (v/v) Pluronic F-127 (5%, Sigma, P2443); 2.5 mM Probenecid (Maybridge, SB00915EB); pH 7.4)) were added into each well. The plates were incubated in the dark at room temperature for 80 min. After the incubation period, the dye solution was removed and the wells were washed with 100 μl of assay buffer. Then 80 μl of a solution of the test compound in assay buffer in different concentrations were added into the wells. The plates were incubated at 16° C. for 45 min. Meanwhile a 60 μM solution of Gramicidine in assay buffer (4° C.) was prepared and stored in the wells of a 96 well microplate (96 well microplate, polypropylene, U-shape (Greiner Bio-One, 650201)) at 4° C. until measurement was started. The fluorescence monitoring was performed at 240 measuring points with measurement intervals of 2 sec. After the fifth measuring point, 40 μl of the Gramicidine solution were added to each well of the assay plates to give a final Gramicidine concentration of 20 μM. For the determination of the IC50 values the minimal fluorescence value was subtracted from the maximal fluorescence value for all measuring points. The calculation of the IC50 values via the percentage inhibitions of Ca^2+ influx into cells (reverse mode) effected by the test compound was performed in Biost@t Speed 2.0.

inhibition at 30 µM | Compound
30% | CCOC(=O)C[C@H](O)[C@H](CC1CCCCC1)NC(=O)c1cnc(Oc2ccc3c(c2)CC[C@@H](c2ccccc2)O3)s1 [compound 227]

Same assay, conditions: inhibition of NCX1 in reverse mode (Ca2+ influx into cells); read-out: NCX1rv IC50

Compound | pIC50
Cc1noc(C)c1CCNC(=O)c1cnc(Oc2ccc3c(c2)CCC(c2cccc(O)c2)O3)s1 (centres unmarked) [compound 173] | 5.64
Cc1cnc(CNCc2cnc(Oc3ccc4c(c3)CCC(c3ccccc3)O4)s2)cn1 (centres unmarked) [compound 135] | 6.30
Cc1cc(CNC(=O)c2cnc(Oc3ccc4c(c3)CCC(c3ccccc3)O4)s2)ccn1 (centres unmarked) [compound 9] | 6.10
O=C(NCc1cn2ccccc2n1)c1cnc(Oc2ccc3c(c2)CCC(c2ccccc2)O3)s1 (centres unmarked) [compound 41] | 5.30
CCC(C)[C@H](NC(=O)c1cnc(Oc2ccc3c(c2)CC[C@@H](c2ccccc2)O3)s1)C(=O)O (some centres unmarked) [compound 196] | 6.30
CCCCN(C)Cc1cnc(Oc2ccc3c(c2)CCC(c2ccccc2)O3)s1 (centres unmarked) [compound 99] | 6.15
O=C(c1cnc(Oc2ccc3c(c2)CCC(c2cccnc2)O3)s1)N1CCC[C@H]1CO (some centres unmarked) [compound 259] | 5.74
CC(C)c1csc([C@H](C)NC(=O)c2cnc(Oc3ccc4c(c3)CCC(c3ccccc3)O4)s2)n1 (some centres unmarked) [compound 53] | 6.15
CCc1ccccc1C1CCc2cc(Oc3ncc(C(=O)NCCc4c(C)noc4C)s3)ccc2O1 (centres unmarked) [compound 323] | 6.05
O=C(NCc1ccno1)c1cnc(Oc2ccc3c(c2)CCC(c2cncc(F)c2)O3)s1 (centres unmarked) [compound 248] | 6.10
COc1cc(C(=O)NCc2cnc(Oc3ccc4c(c3)CCC(c3ccccc3)O4)s2)ccn1 (centres unmarked) [compound 76] | 5.25
O=C(O)CN1CCN(C(=O)c2cnc(Oc3ccc4c(c3)CC[C@@H](c3ccccc3)O4)s2)CC1 [compound 198] | 5.89
c1ccc(C2CCc3cc(Oc4ncc(CN5C6CCC5CC6)s4)ccc3O2)cc1 (centres unmarked) [compound 121] | 6.22
Cc1ccc(F)cc1C1CCc2cc(Oc3ncc(C(=O)NCc4ccno4)s3)ccc2O1 (centres unmarked) [compound 344] | 6.10
Cc1ccccc1C1CCc2cc(Oc3ncc(C(=O)NCc4ccncc4)s3)ccc2O1 (centres unmarked) [compound 179] | 6.30
Cc1c(S(=O)(=O)NCc2cnc(Oc3ccc4c(c3)CCC(c3ccccc3)O4)s2)cnn1C(C)C (centres unmarked) [compound 130] | 6.15
CCc1ccccc1C1CCc2cc(Oc3ncc(C(=O)NCc4ccno4)s3)ccc2O1 (centres unmarked) [compound 324] | 6.30
CN(C)CC1CN(C(=O)c2cnc(Oc3ccc4c(c3)CC[C@@H](c3ccccc3)O4)s2)CCO1 (some centres unmarked) [compound 286] | 5.82

Compound | pIC50
CN1CCOc2cc(S(=O)(=O)NCc3cnc(Oc4ccc5c(c4)CCC(c4ccccc4)O5)s3)ccc21 (centres unmarked) [compound 123] | 5.96
Nc1cc(CNCc2cnc(Oc3ccc4c(c3)CCC(c3ccccc3)O4)s2)ccn1 (centres unmarked) [compound 155] | 6.40
Cc1ncoc1C(=O)NCc1cnc(Oc2ccc3c(c2)CCC(c2ccccc2)O3)s1 (centres unmarked) [compound 69] | 6.30
C[C@@H]1CN(Cc2cnc(Oc3ccc4c(c3)CCC(c3ccccc3)O4)s2)C[C@H](C)O1 (some centres unmarked) [compound 100] | 6.00
O=C(NCc1nnc2ccccn12)c1cnc(Oc2ccc3c(c2)CCC(c2ccccc2)O3)s1 (centres unmarked) [compound 35] | 6.22
CC(C)C[C@@H](NC(=O)c1cnc(Oc2ccc3c(c2)CC[C@@H](c2ccccc2)O3)s1)C(=O)O [compound 237] | 6.10
Cc1c(C(C)NC(=O)c2cnc(Oc3ccc4c(c3)CCC(c3ccccc3)O4)s2)cnn1C (centres unmarked) [compound 8] | 6.10
CCn1cc(CNCc2cnc(Oc3ccc4c(c3)CCC(c3ccccc3)O4)s2)c(C)n1 (centres unmarked) [compound 139] | 6.30
CN(C)Cc1cnc(Oc2ccc3c(c2)CCC(c2ccccc2)O3)s1 (centres unmarked) [compound 119] | 6.40
CCOC(=O)C(CNC(=O)c1cnc(Oc2ccc3c(c2)CC[C@@H](c2ccccc2)O3)s1)CC(C)C (some centres unmarked) [compound 230] | 5.82
O=C(N[C@H]1CCCC[C@H]1C(=O)O)c1cnc(Oc2ccc3c(c2)CC[C@@H](c2ccccc2)O3)s1 [compound 200] | 6.40
CC1CN(C(=O)c2cnc(Oc3ccc4c(c3)CC[C@@H](c3ccccc3)O4)s2)CC1C(=O)O (some centres unmarked) [compound 235] | 6.30
c1ccc(C2CCc3cc(Oc4ncc(CN5CC6CCC(CC6)C5)s4)ccc3O2)cc1 (centres unmarked) [compound 108] | 5.85
CN1CCN(Cc2cnc(Oc3ccc4c(c3)CCC(c3ccccc3)O4)s2)CC1=O (centres unmarked) [compound 102] | 6.40
CCOC(=O)[C@@H](NC(=O)c1cnc(Oc2ccc3c(c2)CCC(c2cccnc2)O3)s1)C(C)C (some centres unmarked) [compound 263] | 4.60
c1ccc(C2CCc3cc(Oc4ncc(CNCc5cccnc5N5CCOCC5)s4)ccc3O2)cc1 (centres unmarked) [compound 145] | 6.05
C[C@H](NC(=O)c1cnc(Oc2ccc3c(c2)CCC(c2ccccc2)O3)s1)c1nc(C2CC2)cs1 (some centres unmarked) [compound 52] | 6.40

Further lines, results first:

pIC50 | Compound
6.40 | NC1CC(NC(=O)c2cnc(Oc3ccc4c(c3)CC[C@@H](c3ccccc3)O4)s2)C1 (some centres unmarked) [compound 257]
6.40 | Nc1cc(CNC(=O)c2cnc(Oc3ccc4c(c3)CCC(c3ccccc3)O4)s2)ccn1 (centres unmarked) [compound 11]
6.40 | O=C(NCCO)c1cnc(Oc2ccc3c(c2)CCC(c2ccccc2)O3)s1 (centres unmarked) [compound 295]
6.52 | Cc1cc(C(=O)NCc2cnc(Oc3ccc4c(c3)CCC(c3ccccc3)O4)s2)on1 (centres unmarked) [compound 84]
6.52 | Cc1nc(Oc2ccc3c(c2)CC[C@@H](c2ccccc2)O3)sc1C(=O)NCCc1ccncc1 [compound 169, hydrochloride]
6.52 | c1ccc(C2CCc3cc(Oc4ncc(CNCCCn5cccn5)s4)ccc3O2)cc1 (centres unmarked) [compound 142]
6.52 | COC(=O)C1CN(C(=O)c2cnc(Oc3ccc4c(c3)CC[C@@H](c3ccccc3)O4)s2)CC1C(F)(F)F (some centres unmarked) [compound 221]
6.52 | CCn1cc(CNC(=O)c2cnc(Oc3ccc4c(c3)CCC(c3ccccc3)O4)s2)cn1 (centres unmarked) [compound 1]
6.52 | O=C(NCc1ccncc1)c1cnc(Oc2ccc3c(c2)CCC(c2ccccc2)O3)s1 (centres unmarked) [compound 4]
6.52 | Cn1nccc1S(=O)(=O)NCc1cnc(Oc2ccc3c(c2)CCC(c2ccccc2)O3)s1 (centres unmarked) [compound 128]
6.52 | O=C(NCC(O)CO)c1cnc(Oc2ccc3c(c2)CCC(c2ccccc2)O3)s1 (centres unmarked) [compound 305]
6.52 | CC(C)CC(CNC(=O)c1cnc(Oc2ccc3c(c2)CC[C@@H](c2ccccc2)O3)s1)C(=O)O (some centres unmarked) [compound 238]
6.52 | 2-((S)-2-Phenyl-chroman-6-yloxy)-thiazole-5-carboxylic acid (3-amino-propyl)-amide [compound 289]
6.70 | Cc1nccc(CNC(=O)c2cnc(Oc3ccc4c(c3)CCC(c3cccc(F)c3)O4)s2)n1 (centres unmarked) [compound 56, hydrochloride]
6.70 | Cc1cc(CNCc2cnc(Oc3ccc4c(c3)CCC(c3ccccc3)O4)s2)on1 (centres unmarked) [compound 160]
6.70 | C[C@H](NC(=O)c1cnc(Oc2ccc3c(c2)CCC(c2ccccc2)O3)s1)c1nccs1 (some centres unmarked) [compound 54]
6.70 | O=C(NCc1cnc(Oc2ccc3c(c2)CCC(c2ccccc2)O3)s1)c1ccncc1Cl (centres unmarked) [compound 80]
6.70 | COCCNCc1cnc(Oc2ccc3c(c2)CCC(c2ccccc2)O3)s1 (centres unmarked) [compound 114]
6.96 | CCCNC(=O)c1csc(Oc2ccc3c(c2)CC[C@@H](c2ccccc2)O3)n1 [compound 351]
7.00 | O=C(NCc1ccno1)c1cnc(Oc2ccc3c(c2)CCC(c2cccc(F)c2)O3)s1 (centres unmarked) [compound 49]
